# Measurements as given in US20260217701A1, “SELECTIVE BET INHIBITORS AND USES THEREOF” (Tay Therapeutics Limited, priority 2022, published 2026).
# Where “and” joins values, the source holds several entries; their conditions need not be identical. Equal values may be shown once.
# Test system: imiquimod-induced psoriasis
# Experiment: Imiquimod-induced psoriasis model
# Format: in vivo, mice
# Details: for PASI Scores / Number Licking / Number Licking + Scratching / Number Scratching / Distance Traveled / Number Rearings: individual animals; for Distance Traveled / Number Rearings: behavioral evaluation
# Procedure, shortened: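 Mice given topical imiquimod (5% cream) daily on depilated backs Days 1–14; Compound A in 5% DMSO/40% PEG-400/55% saline from Day 8, clobetasol topical as reference. Daily PASI (erythema, induration, peeling, each 0–4, summed) Days 8–15; spleen weight, open-field behaviour, serum IL-1B, IL-6, IL-17, TNF-α, IL-22, IL-23 at Day 15.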
# [1] = IMI-psoriasis model, behavioral evaluation D15, 1 mg/kg
# [2] = IMI-psoriasis model, behavioral evaluation D15, 3 mg/kg
# [3] = IMI-psoriasis model, behavioral evaluation D15, 10 mg/kg
smiles,measurement,setting,value
"Cn1cc(-c2ccccc2)c(-c2cn(C)c(=O)c3[nH]c(-c4cnn(C(F)(F)F)c4)cc23)cc1=O [Compound A, 6-methyl-4-(1-methyl-2-oxo-5-phenyl-1,2-dihydropyridin-4-yl)-2-(1-(trifluoromethyl)-1H-pyrazol-4-yl)-1,6-dihydro-7H-pyrrolo[2,3-c]pyridin-7-one]",PASI Scores,"IMI + Compound A 1 mg/kg, D12, 1 mg/kg",6 and 4 (4×) and 5 (2×) and 3
same,PASI Scores,"IMI + Compound A 1 mg/kg, D13, 1 mg/kg",3 (4×) and 2 (2×) and 4 and 5
same,PASI Scores,"IMI + Compound A 1 mg/kg, D14, 1 mg/kg",1 (2×) and 2 (3×) and 3 (3×)
same,PASI Scores,"IMI + Compound A 1 mg/kg, D15, 1 mg/kg",1 (5×) and 2 (2×) and 0
same,PASI Scores,"IMI + Compound A 3 mg/kg, D8 (day treatment started), 3 mg/kg",8 and 6 and 7 and 5 and 9
same,PASI Scores,"IMI + Compound A 3 mg/kg, D9, 3 mg/kg",8 (3×) and 5 and 6
same,PASI Scores,"IMI + Compound A 3 mg/kg, D10, 3 mg/kg",6 and 7 and 4 and 5 (2×)
same,PASI Scores,"IMI + Compound A 3 mg/kg, D11, 3 mg/kg",4 (2×) and 3 (2×) and 5
same,PASI Scores,"IMI + Compound A 3 mg/kg, D12, 3 mg/kg",3 and 4 and 2 and 5
same,PASI Scores,"IMI + Compound A 3 mg/kg, D13, 3 mg/kg",2 (3×) and 0
same,PASI Scores,"IMI + Compound A 3 mg/kg, D14, 3 mg/kg",2 and 0 (2×) and 1
same,PASI Scores,"IMI + Compound A 3 mg/kg, D15, 3 mg/kg",1 (2×) and 0 (2×)
same,Use Enrichment D1,"IMI-psoriasis model, D1, 1 mg/kg, per cage (two animals)",4.0
same,Use Enrichment D1,"IMI-psoriasis model, D1, 3 mg/kg, per cage (two animals)",4.0 and 3.5
same,Use Enrichment D1,"IMI-psoriasis model, D1, 10 mg/kg, per cage (two animals)",4.0
same,Use Enrichment D8,"IMI-psoriasis model, D8, 1 mg/kg, per cage (two animals)",1.0 and 1.5
same,Use Enrichment D10,"IMI-psoriasis model, D10, 1 mg/kg, per cage (two animals)",2.5 and 3.5 and 2.0
same,Use Enrichment D10,"IMI-psoriasis model, D10, 3 mg/kg, per cage (two animals)",2.0 and 3.0
same,Use Enrichment D10,"IMI-psoriasis model, D10, 10 mg/kg, per cage (two animals)",3.0 and 4.0
same,Use Enrichment D11,"IMI-psoriasis model, D11, 1 mg/kg, per cage (two animals)",3.0 and 4.0 and 2.0
same,Use Enrichment D11,"IMI-psoriasis model, D11, 3 mg/kg, per cage (two animals)",3.0 and 4.0
same,Use Enrichment D11,"IMI-psoriasis model, D11, 10 mg/kg, per cage (two animals)",3.0 and 4.0
same,Use Enrichment D12,"IMI-psoriasis model, D12, 1 mg/kg, per cage (two animals)",2.0 and 2.5 and 4.0
same,Use Enrichment D12,"IMI-psoriasis model, D12, 3 mg/kg, per cage (two animals)",3.0
same,Use Enrichment D12,"IMI-psoriasis model, D12, 10 mg/kg, per cage (two animals)",2.0 and 4.0 and 3.0
same,Use Enrichment D13,"IMI-psoriasis model, D13, 1 mg/kg, per cage (two animals)",4.0
same,Use Enrichment D13,"IMI-psoriasis model, D13, 3 mg/kg, per cage (two animals)",4.0
same,Use Enrichment D13,"IMI-psoriasis model, D13, 10 mg/kg, per cage (two animals)",4.0
same,Use Enrichment D14,"IMI-psoriasis model, D14, 1 mg/kg, per cage (two animals)",4.0
same,Use Enrichment D14,"IMI-psoriasis model, D14, 3 mg/kg, per cage (two animals)",4.0
same,Use Enrichment D14,"IMI-psoriasis model, D14, 10 mg/kg, per cage (two animals)",4.0
same,Use Enrichment D15,"IMI-psoriasis model, D15, 1 mg/kg, per cage (two animals)",4.0
same,Use Enrichment D15,"IMI-psoriasis model, D15, 3 mg/kg, per cage (two animals)",4.0
same,Use Enrichment D15,"IMI-psoriasis model, D15, 10 mg/kg, per cage (two animals)",4.0
same,Number Licking,[1],3 (2×) and 5 and 1 and 4 and 2 (2×) and 0
same,Number Licking + Scratching,[1],3 (2×) and 5 (2×) and 8 and 2 (2×) and 0
same,Number Scratching,[1],0 (6×) and 7 and 1
same,Number Licking,[2],3 and 5 and 1 (3×) and 4 (2×)
same,Number Licking + Scratching,[2],3 and 5 and 1 (3×) and 4 (2×)
same,Number Scratching,[2],0
same,Number Licking,[3],2 (4×) and 7 and 1 and 4 and 5
same,Number Licking + Scratching,[3],3 and 11 and 2 (3×) and 4 (2×) and 5
same,Number Scratching,[3],1 (2×) and 4 and 0 (4×) and 2
same,Distance Traveled,"IMI-psoriasis model, 1 mg/kg",18 m and 11 m and 14 m (2×) and 12 m and 16 m (2×) and 4 m
same,Number Rearings,"IMI-psoriasis model, 1 mg/kg",42 and 52 and 50 and 55 and 35 and 78 and 46 and 4
same,Distance Traveled,"IMI-psoriasis model, 3 mg/kg",12 m (3×) and 13 m (2×) and 8 m and 9 m
same,Number Rearings,"IMI-psoriasis model, 3 mg/kg",41 and 43 and 34 (2×) and 24 and 8 and 47
same,Distance Traveled,"IMI-psoriasis model, 10 mg/kg",4 m and 13 m (2×) and 10 m and 8 m and 7 m and 6 m and 11 m
same,Number Rearings,"IMI-psoriasis model, 10 mg/kg",6 and 39 and 38 and 46 and 11 and 21 and 13 and 55
same,Use Enrichment Mean D1-D8,"IMI-psoriasis model, mean D1-D8, 1 mg/kg, per cage (two animals)",2.50 and 2.75
same,Use Enrichment Mean D1-D8,"IMI-psoriasis model, mean D1-D8, 3 mg/kg, per cage (two animals)",2.50 and 2.00 and 2.25
same,Use Enrichment Mean D1-D8,"IMI-psoriasis model, mean D1-D8, 10 mg/kg, per cage (two animals)",2.50 and 2.75 and 2.00
same,Use Enrichment Mean D8-D15,"IMI-psoriasis model, mean D8-D15, 1 mg/kg, per cage (two animals)",3.00 and 3.36 and 3.14
same,Use Enrichment Mean D8-D15,"IMI-psoriasis model, mean D8-D15, 3 mg/kg, per cage (two animals)",3.00 and 3.14 and 2.86
